pIC50: −log10 of the molar value. Structures can show the parent of a compound that is named as a salt.
How the values were obtained:
Assay type in all cases: biochemical, Ratten
[1] = target: T1, Synaptosomen-Aufnahme von Noradrenalin (Rattus norvegicus, UniProt Q63380); experiment: Inhibition of noradrenaline uptake in rat brain synaptosomes (hippocampus, 3H-noradrenaline); conditions: for Hemmung der Synaptosomen-Aufnahme von Noradrenalin r.W. (relative Wirksamkeit): Quotient IC50 Referenzverbindung / IC50 Beispielverbindung; for pIC50: rat hippocampus synaptosomes, 3H-Noradrenalin ca. 10 nM, 37°C, read-out: Hemmung der Synaptosomen-Aufnahme von Noradrenalin IC50
T1 construct: Durch differentielle Zentrifugation wurden Synaptosomen erhalten; from tissue; host or cells: rat brain hippocampus synaptosomes
T1 sequence (Q63380 1-617): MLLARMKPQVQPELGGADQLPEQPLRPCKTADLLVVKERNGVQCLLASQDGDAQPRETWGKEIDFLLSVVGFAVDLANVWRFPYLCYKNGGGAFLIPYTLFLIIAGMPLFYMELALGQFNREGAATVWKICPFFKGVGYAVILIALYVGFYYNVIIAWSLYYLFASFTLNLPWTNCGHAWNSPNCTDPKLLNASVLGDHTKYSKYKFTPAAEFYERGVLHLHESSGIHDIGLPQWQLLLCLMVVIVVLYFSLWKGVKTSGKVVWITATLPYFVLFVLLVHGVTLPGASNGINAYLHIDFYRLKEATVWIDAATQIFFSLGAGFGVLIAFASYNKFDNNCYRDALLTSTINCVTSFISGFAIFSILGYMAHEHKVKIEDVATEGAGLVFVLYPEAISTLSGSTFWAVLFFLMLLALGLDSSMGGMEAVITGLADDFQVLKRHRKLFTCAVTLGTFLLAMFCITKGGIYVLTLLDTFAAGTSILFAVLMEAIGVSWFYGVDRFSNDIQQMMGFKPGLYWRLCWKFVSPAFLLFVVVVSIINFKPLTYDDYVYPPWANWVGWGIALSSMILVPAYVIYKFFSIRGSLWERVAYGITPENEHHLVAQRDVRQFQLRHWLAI
Source text: (§1) Hemmung der Neurotransmitter-Aufnahme in Rattenhirn-Synaptosomen
(§2) Hippocampus und Cortex aus Rattenhirn wurden präpariert und in 0,32 M Sucrose-Lösung homogenisiert. Durch differentielle Zentrifugation wurden Synaptosomen erhalten, die in Pufferlösung suspendiert wurden. Die Synaptosomen sind in der Lage, aus dem umgebenden Medium zugefügte Neurotransmittersubstanzen (z.B. Noradrenalin oder Serotonin) aktiv aufzunehmen. Dieser Vorgang ist durch uptake-Hemmer konzentrationsabhängig antagonisierbar. Die Synaptosomen wurden mit den Testsubstanzen in verschiedenen Konzentrationen versetzt und anschließend mit ³H-Noradrenalin (Hippocampus) bzw. ³H-Serotonin (Cortex) bei 37°C inkubiert. Die Substratkonzentration betrug ca. 10 nM. Nach Stoppen der Aufnahme durch Verdünnen mit eisgekühlter Pufferlösung wurden die Synaptosomen abzentrifugiert und die ³H-Aktivität im Sediment gemessen. Der Blindwert wird durch Inkubation bei 0°C ermittelt.
(§3) Aus den verschiedenen Inhibitor-Konzentrationen gegen Kontrolle ermittelten Hemmwerten wurde durch lineare Regression nach logit-log-Transformation die mittlere Hemmkonzentration IC₅₀ berechnet.

[2] = target: T2, Synaptosomen-Aufnahme von Serotonin (Rattus norvegicus, UniProt P31652); experiment: Inhibition of serotonin uptake in rat brain synaptosomes (cortex, 3H-serotonin); conditions: for Hemmung der Synaptosomen-Aufnahme von Serotonin r.W. (relative Wirksamkeit): Quotient IC50 Referenzverbindung / IC50 Beispielverbindung; for pIC50: rat cortex synaptosomes, 3H-Serotonin ca. 10 nM, 37°C, read-out: Hemmung der Synaptosomen-Aufnahme von Serotonin IC50
T2 construct: Durch differentielle Zentrifugation wurden Synaptosomen erhalten; from tissue; host or cells: rat brain cortex synaptosomes
T2 sequence (P31652 whole entry): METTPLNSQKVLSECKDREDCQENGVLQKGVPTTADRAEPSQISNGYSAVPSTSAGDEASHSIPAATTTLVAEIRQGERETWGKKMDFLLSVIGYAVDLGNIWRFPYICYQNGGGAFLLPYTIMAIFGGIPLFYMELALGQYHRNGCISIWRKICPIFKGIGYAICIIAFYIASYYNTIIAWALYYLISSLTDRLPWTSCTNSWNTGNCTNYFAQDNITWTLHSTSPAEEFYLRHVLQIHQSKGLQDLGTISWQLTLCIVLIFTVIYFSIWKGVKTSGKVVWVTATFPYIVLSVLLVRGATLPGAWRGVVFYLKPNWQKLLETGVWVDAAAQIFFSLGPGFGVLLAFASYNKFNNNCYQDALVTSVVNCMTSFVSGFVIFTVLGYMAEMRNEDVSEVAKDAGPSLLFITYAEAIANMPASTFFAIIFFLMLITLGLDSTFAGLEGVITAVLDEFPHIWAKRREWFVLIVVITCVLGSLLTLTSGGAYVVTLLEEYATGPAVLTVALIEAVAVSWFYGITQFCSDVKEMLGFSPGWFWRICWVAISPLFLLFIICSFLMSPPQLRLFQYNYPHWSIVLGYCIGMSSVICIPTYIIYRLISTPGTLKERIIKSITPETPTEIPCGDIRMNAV
Source text: as §1, §2, §3

Monoaminoxidase Typ B = target: T3, Monoaminoxidase Typ B (Rattus norvegicus, UniProt P19643); experiment: Inhibition of monoamine oxidase type B in rat brain homogenate (14C-phenylethylamine); conditions: for Hemmung der Monoaminoxidase Typ B r.W. (relative Wirksamkeit): Quotient IC50 Referenzverbindung / IC50 Beispielverbindung; for pIC50: rat brain homogenate, 14C-Phenylethylamin, 20 min 37°C, read-out: Hemmung der Monoaminoxidase Typ B IC50
T3 construct: Die Bestimmung der Monoaminoxidase erfolgte in verdünntem Rattenhirnhomogenat; from tissue; host or cells: rat brain homogenate
T3 sequence (P19643 1-520): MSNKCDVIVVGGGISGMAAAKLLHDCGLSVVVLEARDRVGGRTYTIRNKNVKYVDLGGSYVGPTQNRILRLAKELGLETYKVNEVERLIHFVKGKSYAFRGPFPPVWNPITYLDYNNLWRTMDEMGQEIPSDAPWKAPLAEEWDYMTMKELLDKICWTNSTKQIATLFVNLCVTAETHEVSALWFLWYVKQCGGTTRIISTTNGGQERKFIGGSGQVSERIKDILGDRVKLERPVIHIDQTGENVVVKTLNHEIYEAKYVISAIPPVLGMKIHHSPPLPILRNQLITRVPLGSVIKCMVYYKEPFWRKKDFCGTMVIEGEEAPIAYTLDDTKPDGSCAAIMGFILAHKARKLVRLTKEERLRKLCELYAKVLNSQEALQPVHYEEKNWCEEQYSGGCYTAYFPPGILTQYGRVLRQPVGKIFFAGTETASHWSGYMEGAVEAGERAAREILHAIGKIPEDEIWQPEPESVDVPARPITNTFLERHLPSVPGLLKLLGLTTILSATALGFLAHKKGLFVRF
Method: (§4) Hemmung der Monoaminoxidase
(§5) Die Bestimmung der Monoaminoxidase erfolgte in verdünntem Rattenhirnhomogenat dem 1. unterschiedliche Konzentrationen der zu prüfenden Testsubstanzen und 2. für die Bestimmung der Monoaminoxidase Typ A ¹⁴C-Tryptamin in einer Konzentration von 0,4 µmol, zur Bestimmung der Monoaminoxidase Typ B ¹⁴C-Phenylethylamin in einer Konzentration von 0,25 µmol zugesetzt wurde. Dieser Ansatz wurde 20 Minuten bei 37°C inkubiert. Die Reaktion wird durch 0,1 n HCl gestoppt und die Reaktionsprodukte nach Extraktion in Toluol-Szintillator (PPO + POPOP in Toluol) bestimmt. Der Blindwert wird in analogen Ansätzen mit einer Inkubationszeit von t = 0 Minuten bestimmt.
(§6) Aus den bei den verschiedenen Inhibitorkonzentrationen gegen die Kontrolle ermittelten Hemmwerten wurde durch lineare Regression nach logit-log-Transformation die mittlere Hemmkonzentration (IC₅₀) berechnet.

Monoaminoxidase Typ A = target: T4, Monoaminoxidase Typ A (Rattus norvegicus, UniProt P21396); experiment: Inhibition of monoamine oxidase type A in rat brain homogenate (14C-tryptamine); conditions: for Hemmung der Monoaminoxidase Typ A r.W. (relative Wirksamkeit): Quotient IC50 Referenzverbindung / IC50 Beispielverbindung; for pIC50: rat brain homogenate, 14C-Tryptamin, 20 min 37°C, read-out: Hemmung der Monoaminoxidase Typ A IC50
T4 construct: Die Bestimmung der Monoaminoxidase erfolgte in verdünntem Rattenhirnhomogenat; from tissue; host or cells: rat brain homogenate
T4 sequence (P21396 1-526): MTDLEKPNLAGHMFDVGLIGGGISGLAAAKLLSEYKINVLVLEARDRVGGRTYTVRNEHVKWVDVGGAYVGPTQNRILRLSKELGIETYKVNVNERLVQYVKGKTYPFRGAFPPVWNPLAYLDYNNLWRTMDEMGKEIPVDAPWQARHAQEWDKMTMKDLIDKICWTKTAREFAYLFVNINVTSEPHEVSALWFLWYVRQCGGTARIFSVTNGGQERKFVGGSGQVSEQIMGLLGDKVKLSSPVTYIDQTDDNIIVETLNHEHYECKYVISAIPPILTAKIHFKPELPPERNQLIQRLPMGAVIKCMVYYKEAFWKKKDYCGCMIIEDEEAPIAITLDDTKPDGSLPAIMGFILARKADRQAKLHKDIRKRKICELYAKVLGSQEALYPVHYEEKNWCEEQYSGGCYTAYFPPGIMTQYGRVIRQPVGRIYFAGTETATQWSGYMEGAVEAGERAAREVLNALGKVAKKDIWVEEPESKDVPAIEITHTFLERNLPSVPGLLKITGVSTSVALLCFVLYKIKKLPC
Method: as §4, §5, §6

SMILES	Hemmung der Synaptosomen-Aufnahme von Noradrenalin r.W. (relative Wirksamkeit) [1]	pIC50 [1]	Hemmung der Synaptosomen-Aufnahme von Serotonin r.W. (relative Wirksamkeit) [2]	pIC50 [2]	Hemmung der Monoaminoxidase Typ B r.W. (relative Wirksamkeit) (Monoaminoxidase Typ B)	pIC50 (Monoaminoxidase Typ B)	Hemmung der Monoaminoxidase Typ A r.W. (relative Wirksamkeit) (Monoaminoxidase Typ A)	pIC50 (Monoaminoxidase Typ A)
N=c1ccn(-c2ccc(Cl)c(Br)c2)nc1 [Beispiel 16, 1-(3-Brom-4-chlorphenyl)-4-(1H)-pyridazinimin-hydrochlorid]	2.5	7.89	109	8.17	18.1	5.57	2.0	5.67
N=c1ccn(-c2ccc(Br)c(Cl)c2)nc1 [Beispiel 17, 1-(3-Chlor-4-bromphenyl)-4-(1H)-pyridazinimin-hydrochlorid]	6.5	8.32	184	8.41	19.0	5.59	2.7	5.82
N=c1ccn(-c2ccc(Br)c(Br)c2)nc1 [Beispiel 18, 1-(3,4-Dibromphenyl)-4-(1H)-pyridazinimin-hydrochlorid]	6.1	8.29	261	8.55	25.8	5.72	4.8	6.06
N=c1ccn(-c2ccc(C(F)(F)F)cc2)nc1 [Beispiel 32, 1-(4-Trifluormethylphenyl)-4-(1H)-pyridazinimin-hydrobromid]	0.1	6.15	16.6	7.36	12.2	5.40	0.6	5.15
Cc1ccc(-n2ccc(=N)cn2)cc1Cl [Beispiel 42, 1-(3-Chlor-4-methylphenyl)-4-(1H)-pyridazinimin-hydrochlorid]	2.1	7.82	36.5	7.70	24.5	5.70	5.6	6.12
Cc1cc(-n2ccc(=N)cn2)ccc1Cl [Beispiel 45, 1-(3-Methyl-4-chlorphenyl)-4-(1H)-pyridazinimin-sulfat]	1.8	7.77	40.6	7.74	9.8	5.30	4.2	6.00
Cc1cc(-n2ccc(=N)cn2)ccc1Br [Beispiel 46, 1-(3-Methyl-4-bromphenyl)-4-(1H)-pyridazinimin-sulfat]	3.1	8.00	103	8.15	12.2	5.40	4.2	6.00

From EP0227941A1, “1-Phenyl-4-(1H)-pyridazinimines, their preparation and use” (BASF Aktiengesellschaft, priority 1985, dated 1987)
